This test deals with T1, carboxyl terminal truncated form of human stromelysin-I (Homo sapiens, UniProt P08254).
T1 construct: a carboxyl terminal truncated form of human stromelysin-I
The experiment in a line: in vitro inhibition of truncated human stromelysin-I, fluorogenic Mca-peptide assay. The test is classed as biochemical. The following applies: mercaptoalcohol compared with corresponding mercaptoketone. The method, then:
For example, assays of in vitro inhibition activity against a carboxyl terminal truncated form of human stromelysin-I were conducted as follows. The buffer was prepared from 50 mM of N-[2-hydroxyethyl]piperazine-N'-[2-ethanesulfonic acid] (HEPES) (pH 7.0) containing 5 mM calcium, 0.02% of 23 lauryl ether (Brij) and 0.5 mM cysteine and was degassed by vacuum for more than 30 minutes. The methanol (MeOH), which is used for dilution of the inhibitor to the desired concentration, was degassed by bubbling argon for more than 30 minutes. For dilution, a sufficient amount of MeOH was then added to the compounds of the present invention to obtain a 10 mmol solution. For the assay, 20 μL of the MeOH/inhibitor solution was added to 460 μL of buffer, to which 20 μL of 100 nM of stromelysin was then added. The resulting solution was left for three minutes, after which time 5 μL of 100 μM of (7-methoxycoumarin-4-yl)acetyl-Pro-Leu-Gly-Leu-[3-(2',4'-dinitrophenyl)-L- 2,3-diaminopropionyl]-Ala-Arg-NH2 (Mca-peptide)(in dimethyl sulfoxide (DMSO)) was added. The fluorescence intensity increase was measured using a fluoremeter, with excitation wavelength centered around 328 nm (slit of 5 nm) and emission wavelength centered around 393 nm (slit of […]). The slope at each inhibitor concentration was then measured. The slope versus inhibition concentration was next fit into the IC50 equation of […]

T1 sequence (P08254 100-272 limits assumed): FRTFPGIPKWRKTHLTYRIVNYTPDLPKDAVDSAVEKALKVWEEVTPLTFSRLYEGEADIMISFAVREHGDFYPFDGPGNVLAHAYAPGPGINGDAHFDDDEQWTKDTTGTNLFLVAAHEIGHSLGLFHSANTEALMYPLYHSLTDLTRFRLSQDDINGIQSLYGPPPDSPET

As to `CC(C)C[C@H](CC1CSC(c2ccccc2)(c2ccccc2)O1)C(=O)N1C(=O)OC[C@@H]1Cc1ccccc1` (stereo partly shown) [FIG. 11 (3)], the “potency against stromelysin relative to the corresponding compound (FIG. 11)” value is “more than twice as potent”.

Source of the values: US5840698A, “Inhibitors of collagenase-1 and stormelysin-I metalloproteases, pharmaceutical compositions comprising same and methods of their use” (Affymax Technologies N.V., priority 1995, dated 1998).
